Counter-ions that a name gives are not always drawn.
What was measured:
human JAK1 = target: T1, human JAK1 (Homo sapiens, UniProt P23458); test: In Vitro JAK Kinase Assay (HTRF, phosphorylation of a biotinylated peptide), JAK1; format: biochemical; details: catalytic domain a.a. 837-1142, assay of Example A
T1 construct: human JAK1 (a.a. 837-1142); His tag (N); made in house; host or cells: insect cells (baculovirus)
Description: (§1) The catalytic activity of JAK1, JAK2 or JAK3 was assayed by measuring the phosphorylation of a biotinylated peptide. The phosphorylated peptide was detected by homogenous time resolved fluorescence (HTRF). […] Reactions were carried out at room temperature for 1 hour and then stopped with 20 μL 45 mM EDTA, 300 nM SA-APC, 6 nM Eu-Py20 in assay buffer (Perkin Elmer, Boston, Mass.). Binding to the Europium labeled antibody took place for 40 minutes and HTRF signal was measured on a Fusion plate reader (Perkin Elmer, Boston, Mass.).

human JAK2 = target: T2, human JAK2 (Homo sapiens, UniProt O60674); test: In Vitro JAK Kinase Assay (HTRF, phosphorylation of a biotinylated peptide), JAK2; format: biochemical; details: assay of Example A
T2 construct: JAK2 (a.a. 828-1132); His tag (N); made in house; host or cells: insect cells (baculovirus)
Description: as §1

T1 sequence (P23458 849-1154): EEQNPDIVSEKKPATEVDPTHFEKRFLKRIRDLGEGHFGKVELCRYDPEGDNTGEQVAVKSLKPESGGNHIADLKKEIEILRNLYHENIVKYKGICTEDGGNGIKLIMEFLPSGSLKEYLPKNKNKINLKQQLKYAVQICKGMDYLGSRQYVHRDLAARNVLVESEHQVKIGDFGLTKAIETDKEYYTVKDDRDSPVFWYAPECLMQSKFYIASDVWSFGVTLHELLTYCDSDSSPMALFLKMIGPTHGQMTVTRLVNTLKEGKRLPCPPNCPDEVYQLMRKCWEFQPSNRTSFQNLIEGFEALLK
T2 sequence (O60674 828-1132): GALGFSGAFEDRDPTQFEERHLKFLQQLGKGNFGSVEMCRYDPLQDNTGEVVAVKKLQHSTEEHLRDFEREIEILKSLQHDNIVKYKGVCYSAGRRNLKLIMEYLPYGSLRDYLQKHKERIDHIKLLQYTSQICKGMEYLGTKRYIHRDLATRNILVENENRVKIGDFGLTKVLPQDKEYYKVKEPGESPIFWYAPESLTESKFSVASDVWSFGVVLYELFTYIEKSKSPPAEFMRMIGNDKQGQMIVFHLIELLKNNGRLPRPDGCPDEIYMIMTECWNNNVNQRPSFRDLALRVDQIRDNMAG

| IC50 (human JAK1; Table 4) [nM] | JAK2/JAK1 IC50 ratio (human JAK2; Table 4) | Compound | IC50 (human JAK1; Table 5) [nM] | JAK2/JAK1 IC50 ratio (human JAK2; Table 5) |
| --- | --- | --- | --- | --- |
| < 10 | ≧10 | CC(O)c1cc(OC2CCC(N3CC(CC#N)(n4cc(-c5ncnc6[nH]ccc56)cn4)C3)CC2)nc(C(F)(F)F)n1 (single isomer, unassigned) [Example 58, {1-(cis-4-{[6-(1-hydroxyethyl)-2-(trifluoromethyl)pyrimidin-4-yl]oxy}cyclohexyl)-3-[4-(7H-pyrrolo[2,3-d]pyrimidin-4-yl)-1H-pyrazol-1-yl]azetidin-3-yl}acetonitrile tris(trifluoroacetate) (salt)] |  |  |
| < 10 | ≧10 | CC(O)c1cc(OC2CCC(N3CC(CC#N)(n4cc(-c5ncnc6[nH]ccc56)cn4)C3)CC2)nc(C(F)(F)F)n1 (single isomer, unassigned) [Example 58a, {1-(cis-4-{[6-(1-hydroxyethyl)-2-(trifluoromethyl)pyrimidin-4-yl]oxy}cyclohexyl)-3-[4-(7H-pyrrolo[2,3-d]pyrimidin-4-yl)-1H-pyrazol-1-yl]azetidin-3-yl}acetonitrile tris(trifluoroacetate) (salt)] |  |  |
| < 10 | ≧10 | CC(CO)c1cc(OC2CCC(N3CC(CC#N)(n4cc(-c5ncnc6[nH]ccc56)cn4)C3)CC2)nc(C(F)(F)F)n1 (single isomer, unassigned) [Example 59, {1-(cis-4-{[6-(2-hydroxy-1-methylethyl)-2-(trifluoromethyl)pyrimidin-4-yl]oxy}cyclohexyl)-3-[4-(7H-pyrrolo[2,3-d]pyrimidin-4-yl)-1H-pyrazol-1-yl]azetidin-3-yl}acetonitrile bis(trifluoroacetate) (salt)] |  |  |
| < 10 | ≧10 | CC(CO)c1cc(OC2CCC(N3CC(CC#N)(n4cc(-c5ncnc6[nH]ccc56)cn4)C3)CC2)nc(C(F)(F)F)n1 (single isomer, unassigned) [Example 59a, {1-(cis-4-{[6-(2-hydroxy-1-methylethyl)-2-(trifluoromethyl)pyrimidin-4-yl]oxy}cyclohexyl)-3-[4-(7H-pyrrolo[2,3-d]pyrimidin-4-yl)-1H-pyrazol-1-yl]azetidin-3-yl}acetonitrile bis(trifluoroacetate) (salt)] |  |  |
| < 10 | ≧10 | N#CCC1(n2cc(-c3ncnc4[nH]ccc34)cn2)CN([C@H]2CC[C@@H](Oc3cc(CO)nc(C(F)(F)F)n3)CC2)C1 [Example 2, {1-(cis-4-{[6-(Hydroxymethyl)-2-(trifluoromethyl)pyrimidin-4-yl]oxy}cyclohexyl)-3-[4-(7H-pyrrolo[2,3-d]pyrimidin-4-yl)-1H-pyrazol-1-yl]azetidin-3-yl}acetonitrile bis(trifluoroacetate)] |  |  |
| < 10 | ≧10 | N#CCC1(n2cc(-c3ncnc4[nH]ccc34)cn2)CN([C@H]2CC[C@@H](Oc3cc(CN)nc(C(F)(F)F)n3)CC2)C1 [Example 3, {1-(cis-4-{[6-(Aminomethyl)-2-(trifluoromethyl)pyrimidin-4-yl]oxy}cyclohexyl)-3-[4-(7H-pyrrolo[2,3-d]pyrimidin-4-yl)-1H-pyrazol-1-yl]azetidin-3-yl}acetonitrile tetrakis(trifluoroacetate)] |  |  |
| < 10 | ≧10 | CNCc1cc(O[C@H]2CC[C@@H](N3CC(CC#N)(n4cc(-c5ncnc6[nH]ccc56)cn4)C3)CC2)nc(C(F)(F)F)n1 [Example 4, {1-(cis-4-{[6-[(Methylamino)methyl]-2-(trifluoromethyl)pyrimidin-4-yl]oxy}cyclohexyl)-3-[4-(7H-pyrrolo[2,3-d]pyrimidin-4-yl)-1H-pyrazol-1-yl]azetidin-3-yl}acetonitrile tris(trifluoroacetate)] |  |  |
| < 10 |  | CC(C)CNCc1cc(O[C@H]2CC[C@@H](N3CC(CC#N)(n4cc(-c5ncnc6[nH]ccc56)cn4)C3)CC2)nc(C(F)(F)F)n1 [Example 35, {1-(cis-4-{[6-[(isobutylamino)methyl]-2-(trifluoromethyl)pyrimidin-4-yl]oxy}cyclohexyl)-3-[4-(7H-pyrrolo[2,3-d]pyrimidin-4-yl)-1H-pyrazol-1-yl]azetidin-3-yl}acetonitrile tris(trifluoroacetate)] |  |  |

Second part, the compound before the results:

| Compound | IC50 (human JAK1; Table 4) [nM] | JAK2/JAK1 IC50 ratio (human JAK2; Table 4) | IC50 (human JAK1; Table 5) [nM] | JAK2/JAK1 IC50 ratio (human JAK2; Table 5) |
| --- | --- | --- | --- | --- |
| 2-(1-(cis-4-((6-(((2-(1H-imidazol-4- yl)ethyl)amino)methyl)-2- (trifluoromethyl)pyrimidin-4- yl)oxy)cyclohexyl)-3-(4-(7H-pyrrolo[2,3- d]pyrimidin-4-yl)-1H-pyrazol-1- yl)azetidin-3-yl)acetonitrile tris(trifluoroacetate) (salt) [Example 39] | < 10 | ≧10 |  |  |
| CCC(C)NC(=O)c1cc(O[C@H]2CC[C@@H](N3CC(CC#N)(n4cc(-c5ncnc6[nH]ccc56)cn4)C3)CC2)nc(C(F)(F)F)c1.O=C(O)C(F)(F)F.O=C(O)C(F)(F)F (relative stereo) [Example 88, N-(sec-butyl)-2-[(cis-4-{3-(cyanomethyl)-3-[4-(7H-pyrrolo[2,3-d]pyrimidin-4-yl)-1H-pyrazol-1-yl]azetidin-1-yl}cyclohexyl)oxy]-6-(trifluoromethyl)isonicotinamide bis(trifluoroacetate)] |  |  | < 10 | ≧10 |
| CC(O)(CO)c1cc(OC2CCC(N3CC(CC#N)(n4cc(-c5ncnc6[nH]ccc56)cn4)C3)CC2)nc(C(F)(F)F)n1 (single isomer, unassigned) [Example 57, {1-(cis-4-{[6-(1,2-dihydroxy-1-methylethyl)-2-(trifluoromethyl)pyrimidin-4-yl]oxy}cyclohexyl)-3-[4-(7H-pyrrolo[2,3-d]pyrimidin-4-yl)-1H-pyrazol-1-yl]azetidin-3-yl}acetonitrile tris(trifluoroacetate) (salt)] | < 10 | ≧10 |  |  |
| CC(O)(CO)c1cc(OC2CCC(N3CC(CC#N)(n4cc(-c5ncnc6[nH]ccc56)cn4)C3)CC2)nc(C(F)(F)F)n1 (single isomer, unassigned) [Example 57a, {1-(cis-4-{[6-(1,2-dihydroxy-1-methylethyl)-2-(trifluoromethyl)pyrimidin-4-yl]oxy}cyclohexyl)-3-[4-(7H-pyrrolo[2,3-d]pyrimidin-4-yl)-1H-pyrazol-1-yl]azetidin-3-yl}acetonitrile tris(trifluoroacetate) (salt)] | < 10 | ≧10 |  |  |
| N#CCC1(n2cc(-c3ncnc4[nH]ccc34)cn2)CN([C@H]2CC[C@@H](Oc3cc(CN4CCC[C@@H]4CO)cc(C(F)(F)F)n3)CC2)C1.O=C(O)C(F)(F)F.O=C(O)C(F)(F)F.O=C(O)C(F)(F)F (stereo in doubt) [Example 93, {1-(cis-4-{[4-{[(2R)-2-(hydroxymethyl)pyrrolidin-1-yl]methyl}-6-(trifluoromethyl)pyridin-2-yl]oxy}cyclohexyl)-3-[4-(7H-pyrrolo[2,3-d]pyrimidin-4-yl)-1H-pyrazol-1-yl]azetidin-3-yl}acetonitrile tris(trifluoroacetate)] |  |  | < 10 | ≧10 |
| N#CCC1(n2cc(-c3ncnc4[nH]ccc34)cn2)CN([C@H]2CC[C@@H](Oc3cc(CN4CCC[C@H]4CO)cc(C(F)(F)F)n3)CC2)C1.O=C(O)C(F)(F)F.O=C(O)C(F)(F)F.O=C(O)C(F)(F)F (stereo in doubt) [Example 94, {1-(cis-4-{[4-{[(2S)-2-(hydroxymethyl)pyrrolidin-1-yl]methyl}-6-(trifluoromethyl)pyridin-2-yl]oxy}cyclohexyl)-3-[4-(7H-pyrrolo[2,3-d]pyrimidin-4-yl)-1H-pyrazol-1-yl]azetidin-3-yl}acetonitrile tris(trifluoroacetate)] |  |  | < 10 | ≧10 |
| CN(C)Cc1cc(O[C@H]2CC[C@@H](N3CC(CC#N)(n4cc(-c5ncnc6[nH]ccc56)cn4)C3)CC2)nc(C(F)(F)F)n1 [Example 1, {1-(cis-4-{[6-[(Dimethylamino)methyl]-2-(trifluoromethyl)pyrimidin-4-yl]oxy}cyclohexyl)-3-[4-(7H-pyrrolo[2,3-d]pyrimidin-4-yl)-1H-pyrazol-1-yl]azetidin-3-yl}acetonitrile tetrakis(trifluoroacetate)] | < 10 | ≧10 |  |  |
| N#CCC1(n2cc(-c3ncnc4[nH]ccc34)cn2)CN([C@H]2CC[C@@H](Oc3cc(CN4CCCCC4)nc(C(F)(F)F)n3)CC2)C1 [Example 30, {1-(cis-4-{[6-(piperidin-1-ylmethyl)-2-(trifluoromethyl)pyrimidin-4-yl]oxy}cyclohexyl)-3-[4-(7H-pyrrolo[2,3-d]pyrimidin-4-yl)-1H-pyrazol-1-yl]azetidin-3-yl}acetonitrile tris(trifluoroacetate)] | < 10 |  |  |  |
| CC(C)(CO)NCc1cc(O[C@H]2CC[C@@H](N3CC(CC#N)(n4cc(-c5ncnc6[nH]ccc56)cn4)C3)CC2)nc(C(F)(F)F)c1 [Example 71, {1-(cis-4-{[4-{[(2-hydroxy-1,1-dimethylethyl)amino]methyl}-6-(trifluoromethyl)pyridin-2-yl]oxy}cyclohexyl)-3-[4-(7H-pyrrolo[2,3-d]pyrimidin-4-yl)-1H-pyrazol-1-yl]azetidin-3-yl}acetonitrile tris(trifluoroacetate) (salt)] |  |  | < 10 |  |
| N#CCC1(n2cc(-c3ncnc4[nH]ccc34)cn2)CN([C@H]2CC[C@@H](Oc3cc(CN4CCC(O)CC4)cc(C(F)(F)F)n3)CC2)C1 [Example 97, {1-(cis-4-{[4-[(4-hydroxypiperidin-1-yl)methyl]-6-(trifluoromethyl)pyridin-2-yl]oxy}cyclohexyl)-3-[4-(7H-pyrrolo[2,3-d]pyrimidin-4-yl)-1H-pyrazol-1-yl]azetidin-3-yl}acetonitrile tris(trifluoroacetate)] |  |  | < 10 |  |
